Assay results as given in ChEMBL document CHEMBL5653631, “A Potent and Selective ULK1 Inhibitor Suppresses Autophagy and Sensitizes Cancer Cells to Nutrient Stress” (iScience, 2018).

How the values were obtained:
[1] = target: T1, Tyrosine-protein kinase ITK/TSK (Homo sapiens) (UniProt Q08881); experiment: Inhibition of human recombinant ITK at 40 nM related to control ULK1
T1 sequence (whole entry): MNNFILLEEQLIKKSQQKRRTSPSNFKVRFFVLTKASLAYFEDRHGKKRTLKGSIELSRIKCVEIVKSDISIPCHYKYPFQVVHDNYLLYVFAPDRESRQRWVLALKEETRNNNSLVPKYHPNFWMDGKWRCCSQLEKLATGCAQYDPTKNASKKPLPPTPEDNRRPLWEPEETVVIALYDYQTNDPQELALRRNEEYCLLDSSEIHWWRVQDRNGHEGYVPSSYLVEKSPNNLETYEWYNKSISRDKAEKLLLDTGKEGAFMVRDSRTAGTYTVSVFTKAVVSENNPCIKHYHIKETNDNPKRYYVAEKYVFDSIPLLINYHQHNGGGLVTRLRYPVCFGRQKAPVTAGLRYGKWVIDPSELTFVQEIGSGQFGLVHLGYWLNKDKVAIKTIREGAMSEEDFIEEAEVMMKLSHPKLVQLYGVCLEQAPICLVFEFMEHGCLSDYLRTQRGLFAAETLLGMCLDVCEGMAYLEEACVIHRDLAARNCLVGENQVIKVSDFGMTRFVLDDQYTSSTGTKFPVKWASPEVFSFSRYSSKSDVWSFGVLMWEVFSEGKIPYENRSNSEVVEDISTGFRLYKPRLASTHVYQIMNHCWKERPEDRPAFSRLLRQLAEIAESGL

[2] = target: Calcium/calmodulin-dependent protein kinase type II subunit alpha (Homo sapiens) (UniProt Q9UQM7); experiment: Inhibition of human recombinant CaMK2a at 500 nM in presence of ATP by radiometric assay relative to control
Calcium/calmodulin-dependent protein kinase type II subunit alpha (Homo sapiens), sequence (Q9UQM7 whole entry): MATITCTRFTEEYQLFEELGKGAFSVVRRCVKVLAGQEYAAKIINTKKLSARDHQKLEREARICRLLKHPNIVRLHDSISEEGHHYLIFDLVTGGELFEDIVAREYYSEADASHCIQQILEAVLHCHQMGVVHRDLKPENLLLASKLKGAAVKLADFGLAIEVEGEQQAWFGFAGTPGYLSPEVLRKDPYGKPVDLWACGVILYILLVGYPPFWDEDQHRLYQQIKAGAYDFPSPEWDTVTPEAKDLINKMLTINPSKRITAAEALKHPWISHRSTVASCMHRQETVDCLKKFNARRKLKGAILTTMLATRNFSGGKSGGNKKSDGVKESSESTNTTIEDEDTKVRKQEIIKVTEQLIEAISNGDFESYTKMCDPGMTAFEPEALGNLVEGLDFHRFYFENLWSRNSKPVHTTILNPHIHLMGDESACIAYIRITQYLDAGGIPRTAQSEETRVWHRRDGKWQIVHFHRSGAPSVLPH

[3] = target: Bone morphogenetic protein receptor type-1B (Homo sapiens) (UniProt O00238); experiment: Inhibition of human recombinant BMPR1B at 500 nM related to control ULK1
Bone morphogenetic protein receptor type-1B (Homo sapiens), sequence (O00238 whole entry): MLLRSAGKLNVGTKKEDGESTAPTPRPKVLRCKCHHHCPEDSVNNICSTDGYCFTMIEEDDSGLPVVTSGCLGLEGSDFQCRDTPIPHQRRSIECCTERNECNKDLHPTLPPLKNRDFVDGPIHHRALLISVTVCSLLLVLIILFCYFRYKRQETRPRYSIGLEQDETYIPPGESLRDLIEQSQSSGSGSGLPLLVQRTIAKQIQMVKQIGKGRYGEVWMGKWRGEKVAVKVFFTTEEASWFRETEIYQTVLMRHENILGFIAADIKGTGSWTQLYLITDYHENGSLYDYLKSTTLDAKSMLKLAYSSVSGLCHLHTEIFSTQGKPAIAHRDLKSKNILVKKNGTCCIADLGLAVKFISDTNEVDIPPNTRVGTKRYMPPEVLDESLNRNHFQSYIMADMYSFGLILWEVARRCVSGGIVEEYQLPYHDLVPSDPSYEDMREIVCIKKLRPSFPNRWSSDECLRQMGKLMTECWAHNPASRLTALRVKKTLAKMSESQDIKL

[4] = target: Serine/threonine-protein kinase PAK 6 (Homo sapiens) (UniProt Q9NQU5); experiment: Inhibition of human recombinant PAK6 at 500 nM in presence of ATP by radiometric assay relative to control
Serine/threonine-protein kinase PAK 6 (Homo sapiens), sequence (Q9NQU5 whole entry, looked up): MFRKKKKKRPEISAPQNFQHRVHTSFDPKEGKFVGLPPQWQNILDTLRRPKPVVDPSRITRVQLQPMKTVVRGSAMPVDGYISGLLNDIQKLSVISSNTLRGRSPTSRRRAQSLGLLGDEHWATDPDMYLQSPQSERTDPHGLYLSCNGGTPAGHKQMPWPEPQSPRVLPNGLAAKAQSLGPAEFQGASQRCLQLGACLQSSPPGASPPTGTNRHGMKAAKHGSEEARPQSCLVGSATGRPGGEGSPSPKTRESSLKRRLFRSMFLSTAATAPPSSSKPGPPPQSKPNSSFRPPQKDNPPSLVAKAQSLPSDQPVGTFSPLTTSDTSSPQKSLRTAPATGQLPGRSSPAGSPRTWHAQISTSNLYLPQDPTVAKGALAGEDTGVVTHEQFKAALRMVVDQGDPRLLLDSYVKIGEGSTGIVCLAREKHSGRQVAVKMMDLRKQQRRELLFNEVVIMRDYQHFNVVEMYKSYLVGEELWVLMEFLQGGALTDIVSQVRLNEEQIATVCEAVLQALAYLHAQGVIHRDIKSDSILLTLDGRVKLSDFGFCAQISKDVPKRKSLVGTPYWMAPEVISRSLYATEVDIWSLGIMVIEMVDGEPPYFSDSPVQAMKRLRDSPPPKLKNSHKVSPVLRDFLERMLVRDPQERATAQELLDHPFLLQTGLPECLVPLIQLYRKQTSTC

[5] = target: Dual specificity tyrosine-phosphorylation-regulated kinase 1B (Homo sapiens) (UniProt Q9Y463); experiment: Inhibition of human recombinant DYRK1B at 500 nM related to control ULK1
Dual specificity tyrosine-phosphorylation-regulated kinase 1B (Homo sapiens), sequence (Q9Y463 whole entry, looked up): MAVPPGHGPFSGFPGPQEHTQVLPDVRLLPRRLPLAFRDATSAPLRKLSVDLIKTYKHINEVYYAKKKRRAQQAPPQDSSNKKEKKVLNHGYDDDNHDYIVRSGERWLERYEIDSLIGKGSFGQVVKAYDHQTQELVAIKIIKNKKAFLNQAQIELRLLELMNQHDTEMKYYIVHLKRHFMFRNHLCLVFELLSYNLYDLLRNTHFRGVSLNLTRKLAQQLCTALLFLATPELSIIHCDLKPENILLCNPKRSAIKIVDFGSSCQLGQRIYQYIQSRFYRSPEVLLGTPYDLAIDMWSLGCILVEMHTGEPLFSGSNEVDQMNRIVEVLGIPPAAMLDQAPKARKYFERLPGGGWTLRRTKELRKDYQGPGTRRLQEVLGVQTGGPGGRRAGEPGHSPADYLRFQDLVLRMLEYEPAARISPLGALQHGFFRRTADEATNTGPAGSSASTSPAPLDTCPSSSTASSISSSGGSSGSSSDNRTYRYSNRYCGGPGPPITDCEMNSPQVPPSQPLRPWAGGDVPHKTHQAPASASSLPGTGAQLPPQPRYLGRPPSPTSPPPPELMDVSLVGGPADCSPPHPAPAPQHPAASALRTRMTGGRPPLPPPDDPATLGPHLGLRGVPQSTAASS

[6] = target: Ribosomal protein S6 kinase alpha-5 (Homo sapiens) (UniProt O75582); experiment: Inhibition of human recombinant MSK1 at 500 nM in presence of ATP by radiometric assay relative to control
Ribosomal protein S6 kinase alpha-5 (Homo sapiens), sequence (O75582 whole entry, looked up, the tested form may be a part): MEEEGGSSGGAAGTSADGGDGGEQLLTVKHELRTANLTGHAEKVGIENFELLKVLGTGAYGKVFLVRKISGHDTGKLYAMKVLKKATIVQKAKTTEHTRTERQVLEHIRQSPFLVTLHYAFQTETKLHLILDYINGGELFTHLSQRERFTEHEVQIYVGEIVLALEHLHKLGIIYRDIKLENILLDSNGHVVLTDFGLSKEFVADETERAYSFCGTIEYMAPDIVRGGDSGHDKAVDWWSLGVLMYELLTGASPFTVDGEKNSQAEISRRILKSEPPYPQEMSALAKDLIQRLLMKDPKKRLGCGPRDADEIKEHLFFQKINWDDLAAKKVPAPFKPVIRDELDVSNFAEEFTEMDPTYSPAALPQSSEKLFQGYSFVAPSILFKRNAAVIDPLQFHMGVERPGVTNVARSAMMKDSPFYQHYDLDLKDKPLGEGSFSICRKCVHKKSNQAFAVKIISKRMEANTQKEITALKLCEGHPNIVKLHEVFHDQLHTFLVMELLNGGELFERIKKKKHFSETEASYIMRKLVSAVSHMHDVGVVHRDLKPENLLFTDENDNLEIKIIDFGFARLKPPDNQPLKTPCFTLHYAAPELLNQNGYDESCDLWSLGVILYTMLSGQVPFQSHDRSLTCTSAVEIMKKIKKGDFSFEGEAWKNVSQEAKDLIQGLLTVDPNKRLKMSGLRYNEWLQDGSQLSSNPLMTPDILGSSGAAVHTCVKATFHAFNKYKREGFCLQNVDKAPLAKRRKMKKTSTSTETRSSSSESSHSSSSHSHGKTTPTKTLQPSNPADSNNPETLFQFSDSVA

[7] = target: PAS domain-containing serine/threonine-protein kinase (Homo sapiens) (UniProt Q96RG2); experiment: Inhibition of human recombinant PASK at 500 nM related to control ULK1
PAS domain-containing serine/threonine-protein kinase (Homo sapiens), sequence (Q96RG2 whole entry, the tested form may be a part): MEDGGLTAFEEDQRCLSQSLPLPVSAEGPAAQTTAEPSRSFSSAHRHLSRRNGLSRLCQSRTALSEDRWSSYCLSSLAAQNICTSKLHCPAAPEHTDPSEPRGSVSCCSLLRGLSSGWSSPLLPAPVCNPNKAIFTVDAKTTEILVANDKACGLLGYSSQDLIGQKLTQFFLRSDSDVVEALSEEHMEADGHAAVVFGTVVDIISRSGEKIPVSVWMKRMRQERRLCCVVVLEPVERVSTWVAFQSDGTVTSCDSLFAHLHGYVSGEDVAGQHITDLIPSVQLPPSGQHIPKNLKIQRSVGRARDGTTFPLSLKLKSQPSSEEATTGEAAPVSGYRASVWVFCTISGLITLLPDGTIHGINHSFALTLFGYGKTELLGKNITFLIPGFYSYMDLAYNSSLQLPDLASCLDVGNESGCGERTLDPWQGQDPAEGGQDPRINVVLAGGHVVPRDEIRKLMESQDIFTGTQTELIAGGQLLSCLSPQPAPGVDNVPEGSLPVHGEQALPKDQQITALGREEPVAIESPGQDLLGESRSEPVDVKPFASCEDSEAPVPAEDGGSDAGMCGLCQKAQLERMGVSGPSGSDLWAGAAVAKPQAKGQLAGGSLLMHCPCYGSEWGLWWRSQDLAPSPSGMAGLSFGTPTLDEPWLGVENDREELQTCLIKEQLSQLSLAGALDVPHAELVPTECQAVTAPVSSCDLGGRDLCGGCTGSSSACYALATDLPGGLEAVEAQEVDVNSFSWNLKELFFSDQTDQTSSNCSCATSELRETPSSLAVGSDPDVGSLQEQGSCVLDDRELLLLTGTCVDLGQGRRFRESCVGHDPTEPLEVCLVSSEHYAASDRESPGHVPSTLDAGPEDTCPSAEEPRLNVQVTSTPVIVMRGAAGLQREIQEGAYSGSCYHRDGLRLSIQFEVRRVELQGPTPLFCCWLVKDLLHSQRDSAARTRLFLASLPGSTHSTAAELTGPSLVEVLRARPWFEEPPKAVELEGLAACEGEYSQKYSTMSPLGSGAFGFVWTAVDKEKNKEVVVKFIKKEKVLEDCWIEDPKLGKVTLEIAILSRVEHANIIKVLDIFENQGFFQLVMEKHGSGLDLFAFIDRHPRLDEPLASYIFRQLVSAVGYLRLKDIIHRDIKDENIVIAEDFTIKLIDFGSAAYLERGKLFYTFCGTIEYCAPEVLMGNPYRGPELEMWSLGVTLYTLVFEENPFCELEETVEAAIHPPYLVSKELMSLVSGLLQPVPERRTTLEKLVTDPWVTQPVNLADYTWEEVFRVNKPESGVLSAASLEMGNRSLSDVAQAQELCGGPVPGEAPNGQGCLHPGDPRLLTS

[8] = target: T2, Serine/threonine-protein kinase TAO2 (Homo sapiens) (UniProt Q9UL54); experiment: Inhibition of human recombinant TAO2 at 15 nM related to control ULK1
T2 sequence (whole entry): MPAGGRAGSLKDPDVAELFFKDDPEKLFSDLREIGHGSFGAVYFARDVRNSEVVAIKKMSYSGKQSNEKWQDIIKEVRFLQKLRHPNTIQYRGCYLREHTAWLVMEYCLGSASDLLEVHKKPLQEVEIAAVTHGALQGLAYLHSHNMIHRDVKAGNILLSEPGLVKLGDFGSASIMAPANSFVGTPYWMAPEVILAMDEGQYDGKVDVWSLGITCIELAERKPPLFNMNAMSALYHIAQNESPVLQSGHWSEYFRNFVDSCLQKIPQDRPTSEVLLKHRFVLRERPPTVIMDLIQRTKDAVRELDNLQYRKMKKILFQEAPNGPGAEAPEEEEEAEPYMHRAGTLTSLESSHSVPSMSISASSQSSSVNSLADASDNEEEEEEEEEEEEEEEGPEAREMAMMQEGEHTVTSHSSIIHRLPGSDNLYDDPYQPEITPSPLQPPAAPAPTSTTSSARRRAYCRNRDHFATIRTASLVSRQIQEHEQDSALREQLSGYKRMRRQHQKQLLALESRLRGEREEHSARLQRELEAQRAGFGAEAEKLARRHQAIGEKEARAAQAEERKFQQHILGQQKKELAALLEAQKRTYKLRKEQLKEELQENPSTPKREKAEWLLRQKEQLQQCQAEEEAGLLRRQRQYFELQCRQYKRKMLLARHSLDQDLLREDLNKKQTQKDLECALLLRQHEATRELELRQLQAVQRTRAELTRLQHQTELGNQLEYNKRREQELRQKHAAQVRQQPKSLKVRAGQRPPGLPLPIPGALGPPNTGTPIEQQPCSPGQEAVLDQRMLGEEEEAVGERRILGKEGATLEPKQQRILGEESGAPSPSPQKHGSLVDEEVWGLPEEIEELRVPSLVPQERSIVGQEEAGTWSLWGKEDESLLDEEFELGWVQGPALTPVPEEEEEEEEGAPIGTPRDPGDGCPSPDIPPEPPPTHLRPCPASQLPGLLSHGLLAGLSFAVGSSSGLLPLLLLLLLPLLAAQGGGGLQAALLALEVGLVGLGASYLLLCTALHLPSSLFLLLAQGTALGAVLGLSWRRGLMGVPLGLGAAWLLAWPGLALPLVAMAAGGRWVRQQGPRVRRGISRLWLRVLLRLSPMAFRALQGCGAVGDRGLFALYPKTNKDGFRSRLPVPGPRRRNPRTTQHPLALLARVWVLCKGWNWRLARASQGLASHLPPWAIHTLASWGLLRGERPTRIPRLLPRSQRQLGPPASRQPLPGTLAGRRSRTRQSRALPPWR

Compound: O=C(N[C@@H](C1CC1)C(F)(F)F)c1cc(-c2cnn3cc(-c4ccc(F)cc4)cnc23)cs1
- fold change (FC) [1]: 0

Compound: CNC(=O)c1ccccc1Oc1nc(Nc2cc(OC)c(OC)c(OC)c2)ncc1Br
- inhibition [2]: 0%
- fold change (FC) [3]: 0
- inhibition [4]: 19%
- fold change (FC) [5]: 0
- inhibition [6]: 11%
- fold change (FC) [7]: 0.14

Compound: CC(C)[C@H](NC(=O)c1cc(-c2cnn3cc(-c4ccc(OCCN5CCCCC5)cc4)cnc23)cs1)C(F)(F)F
- fold change (FC) [8]: 0
